In article PMC3364000 (Vaccine, 2009):
Peptide text beside a SMILES is read from it.

Experiments:
Assay in all cases: biochemical
Format in all cases: binding
HLA-DRB1*1501 = HLA-DRB1*1501 (Homo sapiens, UniProt P01903+P01911)
HLA-DRB1*0301 = HLA-DRB1*0301 (Homo sapiens, UniProt P01903+P01911, A100K/A102G/A103R/A169T/F55Y/I96L/K41T/L162R/M171V/P40S/Q125H/Q178H/Q39Y/R42S/S66N/T106N/T262R/W38E/Y61H)
HLA-DRB5*0101 = HLA-DRB5*0101 (Homo sapiens, UniProt P01903+Q30154)
HLA-DRB1*0101 = HLA-DRB1*0101 (Homo sapiens, UniProt P01903+P01911, A100R/D57E/F55L/F60I/F76Y/I96L/L162R/M171V/P40L/Q125E/R42F/V115G/Y59C)
HLA-DRB1*0701 = HLA-DRB1*0701 (Homo sapiens, UniProt P01903+P01911, A100R/A102G/A103Q/D57E/D86V/E43K/F76Y/K127E/L162R/M171V/P40G/Q125H/Q99D/R33Q/R42Y/R54Q/S133A/S66F/T210M/V115G/Y107V/Y59L/Y89S)
HLA-DRB1*1302 = HLA-DRB1*1302 (Homo sapiens, UniProt P01903+P01911, A100E/A169T/K41T/L162R/M171V/P40S/Q125H/Q178H/Q39Y/Q99D/R42S/S66N/T262R/V115G/W38E/Y61H)
HLA-DRB1*0401 = HLA-DRB1*0401 (Homo sapiens, UniProt P01903+P01911, A100K/A169T/F76Y/I96L/K127E/L162R/M171V/N62H/P40V/Q125Y/R42H/S133A/S149N/S66Y/V115G/V209L/W38E)
HLA-DRB1*0404 = HLA-DRB1*0404 (Homo sapiens, UniProt P01903+P01911, A100R/A169T/F76Y/I96L/K127E/L162R/M171V/N62H/P40V/Q125Y/R42H/S133A/S149N/S66Y/V209L/W38E)
HLA-DRB1*0802 = HLA-DRB1*0802 (Homo sapiens, UniProt P01903+P01911, A100R/A103L/A169T/F76Y/H45Y/I96F/K41T/L162R/M171V/P40S/Q125H/Q178H/Q39Y/Q99D/R218S/R42G/S66Y/V115G/W38E)
HLA-DRB1*0901 = HLA-DRB1*0901 (Homo sapiens, UniProt P01903+P01911, A100R/A103E/D57H/D86V/F55Y/F60I/F76Y/I96F/K127E/L162R/M171V/P40D/Q125H/Q99R/R33Q/R42F/S133A/S66N/T210M/V115G/W38K/Y107V/Y59G/Y89S)
HLA-DRB1*0405 = HLA-DRB1*0405 (Homo sapiens, UniProt P01903+P01911, A100R/A169T/D86S/F76Y/I96L/K127E/L162R/M171V/N62H/P40V/Q125Y/R42H/S133A/S149N/S66Y/V115G/V209L/W38E)
HLA-DRB4*0101 = HLA-DRB4*0101 (Homo sapiens, UniProt P01903+P13762, G164S)
HLA-DRB1*1101 = HLA-DRB1*1101 (Homo sapiens, UniProt P01903+P01911, A100R/A169T/A87E/I96F/K41T/L162R/M171V/P40S/Q125H/Q178H/Q39Y/Q99D/R42S/S66Y/T262R/V115G/W38E)
Chain of HLA-DRB1*1101 (P01903 26-254 limits assumed, other chains not shown): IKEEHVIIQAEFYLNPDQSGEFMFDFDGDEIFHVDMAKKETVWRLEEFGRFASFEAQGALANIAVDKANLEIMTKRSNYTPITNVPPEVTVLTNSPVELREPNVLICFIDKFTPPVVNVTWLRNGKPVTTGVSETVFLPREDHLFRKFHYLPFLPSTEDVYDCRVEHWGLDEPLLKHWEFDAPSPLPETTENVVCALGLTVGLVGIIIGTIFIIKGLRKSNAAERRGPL

Chain of HLA-DRB1*1302 (P01903 26-254 limits assumed, other chains not shown): as above
Chain of HLA-DRB1*0301 (P01903 26-254, other chains not shown): as the sequence (P01903 26-254 limits assumed, other chains not shown) above

Row | SMILES | IC50 (HLA-DRB1*1501) | IC50 (HLA-DRB1*0301) | IC50 (HLA-DRB5*0101) | IC50 (HLA-DRB1*0101) | IC50 (HLA-DRB1*0701) | IC50 (HLA-DRB1*1302) | IC50 (HLA-DRB1*0401) | IC50 (HLA-DRB1*0404) | IC50 (HLA-DRB1*0802) | IC50 (HLA-DRB1*0901) | IC50 (HLA-DRB1*0405) | IC50 (HLA-DRB4*0101) | IC50 (HLA-DRB1*1101)
1 | CC[C@H](C)[C@H](NC(=O)[C@H](CCCCN)NC(=O)[C@H](CC(N)=O)NC(=O)[C@H](C)NC(=O)[C@H](CCCCN)NC(=O)[C@H](CCC(=O)O)NC(=O)[C@H](CC(C)C)NC(=O)[C@H](Cc1ccc(O)cc1)NC(=O)[C@H](Cc1ccc(O)cc1)NC(=O)[C@@H](NC(=O)[C@H](Cc1c[nH]cn1)NC(=O)[C@@H](NC(=O)[C@H](CCC(=O)O)NC(=O)[C@H](CCCNC(=N)N)NC(=O)[C@@H](N)CCCNC(=N)N)C(C)C)[C@@H](C)CC)C(=O)O [PA.124] | 4 nM | > 10000 nM |  |  |  |  |  |  |  |  |  |  | 
2 | CC[C@H](C)[C@H](NC(=O)CNC(=O)[C@@H](NC(=O)[C@@H](NC(=O)[C@H](CO)NC(=O)[C@H](C)NC(=O)[C@H](C)NC(=O)[C@@H](NC(=O)[C@@H](NC(=O)[C@H](CC(C)C)NC(=O)[C@@H]1CCCN1C(=O)[C@@H](N)CC(=O)O)C(C)C)C(C)C)[C@@H](C)CC)[C@@H](C)CC)C(=O)N[C@@H](CC(C)C)C(=O)N[C@@H](Cc1c[nH]cn1)C(=O)N[C@@H](CC(C)C)C(=O)O [M2.24] |  | > 10000 nM | > 10000 nM |  |  |  |  |  |  |  |  |  | 
3 | CC[C@H](C)[C@H](NC(=O)[C@H](CCC(N)=O)NC(=O)[C@H](CCC(=O)O)NC(=O)[C@@H](N)Cc1ccccc1)C(=O)N[C@H](C(=O)N[C@@H](Cc1ccccc1)C(=O)N[C@@H](CCSC)C(=O)N[C@@H](CCC(N)=O)C(=O)N[C@@H](C)C(=O)N[C@@H](CC(C)C)C(=O)N[C@@H](CCC(N)=O)C(=O)N[C@@H](CC(C)C)C(=O)N[C@@H](CC(C)C)C(=O)N[C@@H](CC(C)C)C(=O)N[C@@H](CCC(=O)O)C(=O)O)[C@@H](C)O [NS2.94] | 10 nM |  |  |  |  |  |  |  |  |  |  |  | 
4 | CC[C@H](C)[C@H](NC(=O)[C@H](C)NC(=O)CNC(=O)[C@@H](N)CCC(=O)O)C(=O)N[C@H](C(=O)NCC(=O)N[C@@H](CCC(=O)O)C(=O)N[C@H](C(=O)N[C@@H](CO)C(=O)N1CCC[C@H]1C(=O)N[C@@H](CC(C)C)C(=O)N1CCC[C@H]1C(=O)N[C@@H](CO)C(=O)N[C@@H](CC(C)C)C(=O)N1CCC[C@H]1C(=O)NCC(=O)N[C@@H](Cc1c[nH]cn1)C(=O)N[C@H](C(=O)N[C@@H](CC(=O)O)C(=O)O)[C@@H](C)O)[C@@H](C)CC)C(C)C [NS1.153] | 7 nM | 8330 nM | 1140 nM | 64 nM | > 10000 nM | 1770 nM | 14 nM | 6 nM | 227 nM | 6360 nM | 98 nM | 131 nM | 88 nM
5 | CSCC[C@H](NC(=O)[C@H](Cc1c[nH]c2ccccc12)NC(=O)[C@@H](NC(=O)[C@H](CC(C)C)NC(=O)[C@H](CCC(N)=O)NC(=O)[C@H](CO)NC(=O)[C@@H](N)CCCCN)C(C)C)C(=O)N[C@@H](C)C(=O)N[C@@H](CS)C(=O)N[C@@H](Cc1c[nH]cn1)C(=O)N[C@@H](CO)C(=O)N[C@@H](C)C(=O)N[C@@H](C)C(=O)N[C@@H](Cc1ccccc1)C(=O)N[C@@H](CCC(=O)O)C(=O)O [NP.325] |  |  |  | 35 nM |  | > 10000 nM |  | 34 nM |  |  |  |  | 
6 | CC[C@H](C)[C@H](N)C(=O)NCC(=O)N[C@@H](CCCNC(=N)N)C(=O)N[C@@H](Cc1ccccc1)C(=O)N[C@@H](Cc1ccc(O)cc1)C(=O)N[C@H](C(=O)N[C@@H](CCC(N)=O)C(=O)N[C@@H](CCSC)C(=O)N[C@@H](CS)C(=O)N[C@H](C(=O)N[C@@H](CCC(=O)O)C(=O)N[C@@H](CC(C)C)C(=O)N[C@@H](CCCCN)C(=O)N[C@@H](CC(C)C)C(=O)N[C@@H](CO)C(=O)N[C@@H](CC(=O)O)C(=O)N[C@@H](Cc1ccc(O)cc1)C(=O)N[C@@H](CCC(=O)O)C(=O)NCC(=O)O)[C@@H](C)O)[C@@H](C)CC [NP.36] (H-IGRFYIQMCTELKLSDYEG-OH) | 23 nM | 291 nM | 28 nM | 31 nM | 443 nM | 2700 nM | 53 nM | 116 nM | 486 nM | 193 nM | 29 nM | 210 nM | 236 nM
7 | CC[C@H](C)[C@H](NC(=O)[C@H](CO)NC(=O)[C@H](CC(N)=O)NC(=O)[C@@H](N)CCC(N)=O)C(=O)N[C@H](C(=O)N[C@H](C(=O)N[C@@H](CCC(=O)O)C(=O)N[C@@H](CCCNC(=N)N)C(=O)N[C@@H](CCSC)C(=O)N[C@H](C(=O)N[C@@H](CC(C)C)C(=O)N[C@@H](CO)C(=O)N[C@@H](C)C(=O)N[C@@H](Cc1ccccc1)C(=O)N[C@@H](CC(=O)O)C(=O)O)C(C)C)[C@@H](C)CC)[C@@H](C)O [NP.58] |  |  | > 10000 nM |  |  |  |  | 188 nM |  |  |  |  | 
